Source: patent US20070060605A1, “Compositions and methods for inhibiting platelet activation and thrombosis” (priority 2001, published 2007)
Read-outs that look alike come from different tables or passages of the source.

Assays:
[1] = patients suffering intermittent claudication; cited from earlier work
[2] = system: mouse platelets
[3] = system: platelet accumulation into thrombus; format: in vivo; settings: bolus 6 mg/kg/5 min then continuous infusion 3 mg/kg/90 min; P<0.01
Description: A preferred animal model involves intravital microscopy of laser-induced thrombi. The method is described by Rosen et al., 2001, Am J Pathol 158, 1613-1622, which is incorporated herein by reference. Minor variations of that method were employed as described below.
Experimental mice are pre-anesthetized and surgically prepared. A tracheal tube is placed to facilitate breathing and the jugular vein is canulated to allow for maintenance of anesthetic and introduction of compound. The cremaster muscle is then exteriorized. The muscle is affixed over a glass slide, allowing illumination from below. A steady drip of a sodium-bicarbonate buffered salt solution is maintained throughout the experiment to keep the exposed muscle moist. Blood flow in the muscle is visualized using a 40× water immersion lens and epi-illuminated with an appropriately filtered light source. Alexa 488-labeled anti-mouse CD41 antibody is injected through the jugular canulus to label platelets in vivo.
Thrombosis is initiated by damaging the vessel wall (of a 30 μm vessel) with a laser pulse from a MicroPoint LASER attached to the microscope. A LASER pulse is delivered, causing damage in an area smaller than 1 μm. The recruitment of platelets to the thrombus is then monitored by the accumulation of (activated) Alexa 488-labeled platelets at the ablation site using fluorescence microscopy, and the process is recorded digitally. The method thus permits in vivo analysis of platelet activation as measured by platelet aggregation and thrombosis.
The degree of embolization in an untreated mouse can be quantified using software for image analysis, e.g., BioQuant True Color Windows (Biometrics, Nashville, Tenn.), as described in Rosen et al., 2001, supra. The software package permits the determination of the “integrated optical density” or IOD of the thrombus.
Using quantitative intravital fluorescence videomicroscopy with high temporal resolution (111 images/second), the effect of PDE3 inhibition on the platelet recruitment into thrombi was directly observed over time. Platelets were fluorescently labeled by infusing rat-anti-mouse CD41 and Alexa 488-anti-rat IgG through a cannulated jugular vein. The cremaster microvasculature was exposed and mapped and suitable arteriole segments were selected for laser-induced injury. A series of control injuries were generated prior to infusion of the inhibitory compound. The power and the number of laser pulses required to generate each thrombus was recorded. Platelet accumulation to the thrombi following laser ablation was recorded using digital videomicroscopy. The thrombus total fluorescence in each frame of the videos was analyzed using Slidebook software for digital videomicroscopy. The pyridazinone compound was then infused. Following a 15 minute incubation, a series of experimental injuries were generated 250 μm proximal, with relationship to blood flow, of the first injury and the resultant thrombi were recorded. The power and the number of pulses required to induce the control thrombus was used to induce the experimental thrombus. The control and experimental thrombi constituting a pair were compared for statistical analysis. The total fluorescence intensity of the thrombi before and after the infusion of pyridazinone compound was recorded.
Images from a representative experiment of the recruitment of fluorescently-labeled […] platelets into a growing thrombus over time is shown in FIG. 9A.

[4] = system: platelets; assay: Agonist-induced platelet granule secretion / activation (P-selectin expression by flow cytometry; ADP/ATP release); format: cell-based, human
Method: In order to monitor ATP release, a cocktail of 100 μM SFLLR (synthesized using solid phase Fmoc chemistry on an Applied Biosystems model 430A peptide synthesizer) and 3 mg/ml of luciferin/luciferase (Sigma, St. Louis, Mo.) in a volume of 10 μl is added to 20 μl of PRP. Samples are immediately analyzed for luminescence. Activated platelets supply the ATP necessary for luminescence of the luciferin/luciferase assay. Assays can be performed at high throughput through use of a microtiter plate system, e.g., 384-well plates and a Multidrop 384 (Thermo Labsystems, Helsinki), read with a high density imaging system, e.g., the Tundra system (Imaging Research, St. Catherine's, Ontario).
In order to assay platelet activation by cell surface marker expression, fresh PRP is isolated from donors who have not ingested aspirin for two weeks prior to donation. PRP (40 μl) is incubated with known or suspected inhibitor in DMSO or DMSO alone for 15 min. The sample is then incubated with the indicated agonist (e.g., SFLLR) for 10 min. Following incubation of the sample with the indicated agonist, 10 μl of reaction mixture is transferred to 5 μl of phycoerythrin (PE)-conjugated AC 1.2 anti-P-selectin antibody (for assessment of P-selectin surface expression) or fluorescein isothiocyanate (FITC)-conjugated PAC-1 antibody (for assessment of GPIIbIIIa activation). PBS (500 μl) is added to the sample after a 20 min incubation and the platelets are analyzed immediately by flow cytometry. Flow cytometry can be performed using, for example, a Becton-Dickinson FACSCalibur flow cytometer or its equivalent. Fluorescent channels are set at logarithmic gain. Ten thousand particles are acquired for each sample. A 530/30 band pass filter is used for FL-1 fluorescence. A 585/42 band pass filter is used for FL-2 fluorescence. FITC is measured in the FL-1 channel and PE is measured in the FL-2 channel. Data are analyzed using, for example, CellQuest software on a Macintosh PowerPC, or their equivalents.
Compounds were tested for the ability to inhibit agonist-induced ADP/ATP release from platelet dense granules using a luciferin-luciferase reporter system. In this assay, compounds were incubated with platelet-rich plasma (PRP) for 30 min. A cocktail of the platelet agonist and luciferin-luciferase was then added to the wells. Plates were immediately analyzed using a Tundra high density luminescence imager. […] As a control, compounds were also screened in a platelet-free assay for the ability to inhibit luciferin-luciferase upon exposure to ATP.
Each of the compounds was tested for inhibition of platelet activation in response to the agonists SFLLR (a thrombin mimic), U46619 (a thromboxane A2 mimic), ADP and the phorbol ester PMA.
Compounds were also tested by flow cytometry for the inhibition of SFLLR-induced GPIIbIIIa activation and P-selectin expression. In these experiments, freshly obtained PRP was prepared from healthy volunteers who had not ingested aspirin for two weeks prior to donation. Forty μl of PRP was incubated with inhibitor in DMSO or DMSO alone for 15 min. The sample was then incubated with the indicated agonist for 10 min. Following incubation of the sample with the indicated agonist, 10 μl of reaction mixture was transferred to 5 μl of PE-conjugated AC1.2 anti-P-selectin antibody (for assessment of P-selectin surface expression) or FITC-conjugated PAC-1 antibody (for assessment of GPIIbIIIa activation). PBS (500 μl) was added to the sample after a 20 min incubation and the platelets were analyzed immediately by flow cytometry. Flow cytometry was performed using a Becton-Dickinson FACSCalibur flow cytometer. Fluorescent channels were set at logarithmic gain. Ten thousand particles were acquired for each sample. A 530/30 band pass filter was used for FL-1 fluorescence. A 585/42 band pass filter was used for FL-2 fluorescence. FITC was measured in the FL-1 channel and PE was measured in the FL-2 channel.

[5] = target: platelet cGMP-inhibited phosphodiesterase (Homo sapiens, UniProt Q14432); settings: Omburo et al., 1995; cited from earlier work
Sequence of platelet cGMP-inhibited phosphodiesterase (Q14432 whole entry): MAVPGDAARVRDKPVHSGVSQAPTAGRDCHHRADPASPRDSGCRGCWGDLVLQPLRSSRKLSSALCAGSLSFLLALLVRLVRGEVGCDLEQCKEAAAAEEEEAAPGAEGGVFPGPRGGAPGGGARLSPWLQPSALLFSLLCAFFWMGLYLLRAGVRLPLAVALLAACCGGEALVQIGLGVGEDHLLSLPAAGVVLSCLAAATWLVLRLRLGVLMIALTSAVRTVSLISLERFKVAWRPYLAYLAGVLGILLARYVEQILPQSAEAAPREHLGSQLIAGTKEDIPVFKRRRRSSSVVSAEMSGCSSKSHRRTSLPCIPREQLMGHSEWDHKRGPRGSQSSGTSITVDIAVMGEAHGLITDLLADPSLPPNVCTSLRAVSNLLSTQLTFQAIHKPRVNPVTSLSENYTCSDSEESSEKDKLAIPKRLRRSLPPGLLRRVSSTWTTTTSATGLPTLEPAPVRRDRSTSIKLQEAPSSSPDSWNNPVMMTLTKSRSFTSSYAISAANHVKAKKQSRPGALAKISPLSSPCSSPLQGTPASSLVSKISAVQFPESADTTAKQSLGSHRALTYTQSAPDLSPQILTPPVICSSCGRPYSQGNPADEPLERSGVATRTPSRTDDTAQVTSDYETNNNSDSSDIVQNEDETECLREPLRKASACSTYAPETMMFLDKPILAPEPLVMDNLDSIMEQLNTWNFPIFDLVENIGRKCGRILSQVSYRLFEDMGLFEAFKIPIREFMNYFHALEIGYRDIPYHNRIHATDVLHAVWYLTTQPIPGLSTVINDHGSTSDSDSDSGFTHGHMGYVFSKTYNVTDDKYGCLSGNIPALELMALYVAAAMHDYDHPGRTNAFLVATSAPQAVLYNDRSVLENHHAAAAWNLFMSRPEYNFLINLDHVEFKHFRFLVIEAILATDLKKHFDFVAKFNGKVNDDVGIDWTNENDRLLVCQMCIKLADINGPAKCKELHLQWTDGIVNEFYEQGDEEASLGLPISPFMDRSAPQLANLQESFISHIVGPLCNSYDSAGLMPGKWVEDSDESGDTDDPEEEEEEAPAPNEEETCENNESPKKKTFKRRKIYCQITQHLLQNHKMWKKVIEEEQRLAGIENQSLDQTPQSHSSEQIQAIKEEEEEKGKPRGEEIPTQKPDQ

O=C1CCc2cc(OCCCCc3nnnn3C3CCCCC3)ccc2N1 [cilostazol]
Increase of distance of pain free walking [1]: up to 59%

9-methylene-4-(alkyl)-2,3,4,9-tetrahydro-1H-cyclopenta(b)quinoline
Activation of mouse platelets by several platelet agonists [2]: inhibits
Inhibition of thrombosis following laser-induced injury [3]: greater than 80%
IC50 ([4]; agonist ADP, read-out: IC50s of inhibition of platelet granule secretion induced with ADP): 650 µM
IC50 ([4]; agonist PMA, read-out: IC50s of inhibition of platelet granule secretion induced with PMA): 300 µM
IC50 ([4]; agonist SFLLR, read-out: IC50s of inhibition of platelet granule secretion induced with SFLLR): 5 µM
IC50 ([4]; agonist U-46619, read-out: IC50s of inhibition of platelet granule secretion induced with U-46619): 400 µM

c1cnc2c(c1)ccc1cccnc12 [[1,10]phenanthroline]
IC50 [5]: ~2000 µM
